Key:
Conditions in all cases: 48 h
[1] = test system: P12-Ichikawa; assay: cell viability relative to DMSO control; higher = less cytotoxic
Outline: (§1)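 Viability is expressed as a percentage of DMSO wells within each plate, and cell-free wells serve as background. Seeding densities in the 1536-well plates (5 μl) were 500 cells/well for NOMO1 or SEM leukemia cells and 1000 cells/well for P12-Ichikawa. Each line was adapted for at least four passages in each medium. Library compounds in DMSO were pin-dosed at 47 μM to 0.79 nM (11 points, threefold), and CellTiter-Glo One luminescence was read after 48 h at 37°C.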

[2] = test system: SEM cells; assay: as above
Outline: as §1

[3] = test system: NOMO1; assay: as above
Outline: as §1

[4] = test system: P12-Ichikawa; assay: AUC of viability dose-response curve (% viability x log10 dose units); higher = less sensitive
Outline: (§2)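 Library compounds in DMSO were applied for 48 h at 37°C at 11 threefold doses (47 μM to 0.79 nM) to medium-adapted leukemia cells in 1536-well plates holding 500 or 1000 cells/well. Luminescence from CellTiter-Glo One was normalised plate by plate against DMSO and cell-free wells. Area under the curve came from trapezoidal integration of a log-logistic fit, after scaling curves that rose above full viability and discarding those that failed quality control. The fit had four parameters and used log10 doses.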

[5] = test system: SEM cells; assay: as above
Outline: as §2

[6] = test system: NOMO1; assay: as above
Outline: as §2

C/C=C1\NC(=O)[C@H]2CSSCC/C=C\[C@H](CC(=O)N[C@H](C(C)C)C(=O)N2)OC(=O)[C@H](C(C)C)NC1=O
cell viability [%]
Conditions | [1] | [2] | [3]
HPLM + 10% dialyzed FBS, 0.000781 µM | 109 | 81.1 | 102
HPLM + 10% dialyzed FBS, 0.00234 µM | 102 | 89 | 119
HPLM + 10% dialyzed FBS, 0.00702 µM | 104 | 95.1 | 119
HPLM + 10% dialyzed FBS, 0.0211 µM | 106 | 101 | 105
HPLM + 10% dialyzed FBS, 0.0632 µM | 2.7 | 5.64 | 17.7
HPLM + 10% dialyzed FBS, 0.19 µM | 2.94 | 4.52 | 4.68
HPLM + 10% dialyzed FBS, 0.569 µM | 2.82 | 4.32 | 4.81
HPLM + 10% dialyzed FBS, 1.71 µM | 2.88 | 4.63 | 4.43
HPLM + 10% dialyzed FBS, 5.12 µM | 4.38 | 4.25 | 5.27
HPLM + 10% dialyzed FBS, 15.4 µM | 1.48 | 3.1 | 4.81
HPLM + 10% dialyzed FBS, 46.1 µM | 2.87 | 4.21 | 4.24
RPMI 5 mM glucose + 10% FBS, 0.000781 µM | 97.9 | 100 | 99.6
RPMI 5 mM glucose + 10% FBS, 0.00234 µM | 110 | 103 | 97.5
RPMI 5 mM glucose + 10% FBS, 0.00702 µM | 111 | 105 | 104
RPMI 5 mM glucose + 10% FBS, 0.0211 µM | 110 | 81.5 | 94.9
RPMI 5 mM glucose + 10% FBS, 0.0632 µM | 2.34 | 4.85 | 18.1
RPMI 5 mM glucose + 10% FBS, 0.19 µM | 2.68 | 4.94 | 4.23
RPMI 5 mM glucose + 10% FBS, 0.569 µM | 2.61 | 4.25 | 3.46
RPMI 5 mM glucose + 10% FBS, 1.71 µM | 2.36 | 4.39 | 3.14
RPMI 5 mM glucose + 10% FBS, 5.12 µM | 3.14 | 4.14 | 2.93
RPMI 5 mM glucose + 10% FBS, 15.4 µM | 1.58 | 3.14 | 2.29
RPMI 5 mM glucose + 10% FBS, 46.1 µM | 2.72 | 4.36 | 2.53
RPMI 5 mM glucose + 10% dialyzed FBS, 0.000781 µM | 98.9 | 73 | 93.7
RPMI 5 mM glucose + 10% dialyzed FBS, 0.00234 µM | 106 | 106 | 90.3
RPMI 5 mM glucose + 10% dialyzed FBS, 0.00702 µM | 108 | 85.9 | 103
RPMI 5 mM glucose + 10% dialyzed FBS, 0.0211 µM | 107 | 90.4 | 108
RPMI 5 mM glucose + 10% dialyzed FBS, 0.0632 µM | 3.38 | 5.18 | 30.1
RPMI 5 mM glucose + 10% dialyzed FBS, 0.19 µM | 3.46 | 4.76 | 4.52
RPMI 5 mM glucose + 10% dialyzed FBS, 0.569 µM | 3.34 | 4.87 | 4.41
RPMI 5 mM glucose + 10% dialyzed FBS, 1.71 µM | 2.6 | 4.53 | 3.52
RPMI 5 mM glucose + 10% dialyzed FBS, 5.12 µM | 3.15 | 4.12 | 3.86
RPMI 5 mM glucose + 10% dialyzed FBS, 15.4 µM | 3.95 | 2.58 | 1.77
RPMI 5 mM glucose + 10% dialyzed FBS, 46.1 µM | 2.58 | 4.19 | 3.47

AUC of viability dose-response curve
Conditions | [4] | [5] | [6]
HPLM + 10% dialyzed FBS | 175 | 166 | 182
RPMI 5 mM glucose + 10% FBS | 174 | 170 | 181
RPMI 5 mM glucose + 10% dialyzed FBS | 176 | 162 | 189

COC1=CC=CC=C1C2=CC=CC(=C2)C/3=C(O)/C4=CC(=C(Cl)C=C4NC3=O)C#N
cell viability [%]
Conditions | [1] | [2] | [3]
HPLM + 10% dialyzed FBS, 0.000781 µM | 98.4 | 79.2 | 110
HPLM + 10% dialyzed FBS, 0.00234 µM | 106 | 92.5 | 120
HPLM + 10% dialyzed FBS, 0.00702 µM | 111 | 88.2 | 109
HPLM + 10% dialyzed FBS, 0.0211 µM | 114 | 93.5 | 109
HPLM + 10% dialyzed FBS, 0.0632 µM | 107 | 101 | 129
HPLM + 10% dialyzed FBS, 0.19 µM | 112 | 97.5 | 114
HPLM + 10% dialyzed FBS, 0.569 µM | 109 | 92.1 | 107
HPLM + 10% dialyzed FBS, 1.71 µM | 92.8 | 85.7 | 103
HPLM + 10% dialyzed FBS, 5.12 µM | 10.2 | 39.6 | 31.2
HPLM + 10% dialyzed FBS, 15.4 µM | 6.7 | 9.1 | 5.52
HPLM + 10% dialyzed FBS, 46.1 µM | 10.6 | 4.47 | 1.77
RPMI 5 mM glucose + 10% FBS, 0.000781 µM | 99.3 | 73.4 | 89.6
RPMI 5 mM glucose + 10% FBS, 0.00234 µM | 110 | 89.9 | 111
RPMI 5 mM glucose + 10% FBS, 0.00702 µM | 107 | 90.7 | 113
RPMI 5 mM glucose + 10% FBS, 0.0211 µM | 116 | 103 | 98.5
RPMI 5 mM glucose + 10% FBS, 0.0632 µM | 123 | 83 | 107
RPMI 5 mM glucose + 10% FBS, 0.19 µM | 115 | 81.3 | 108
RPMI 5 mM glucose + 10% FBS, 0.569 µM | 114 | 63.9 | 113
RPMI 5 mM glucose + 10% FBS, 1.71 µM | 106 | 48 | 110
RPMI 5 mM glucose + 10% FBS, 5.12 µM | 64.3 | 7.21 | 82.4
RPMI 5 mM glucose + 10% FBS, 15.4 µM | 4.25 | 4.33 | 13.4
RPMI 5 mM glucose + 10% FBS, 46.1 µM | 5.71 | 2.82 | 2.44
RPMI 5 mM glucose + 10% dialyzed FBS, 0.000781 µM | 95.2 | 87.3 | 92.2
RPMI 5 mM glucose + 10% dialyzed FBS, 0.00234 µM | 99.1 | 102 | 103
RPMI 5 mM glucose + 10% dialyzed FBS, 0.00702 µM | 105 | 92.9 | 95.4
RPMI 5 mM glucose + 10% dialyzed FBS, 0.0211 µM | 105 | 98.7 | 93.6
RPMI 5 mM glucose + 10% dialyzed FBS, 0.0632 µM | 99.6 | 93.4 | 96.4
RPMI 5 mM glucose + 10% dialyzed FBS, 0.19 µM | 101 | 102 | 88.3
RPMI 5 mM glucose + 10% dialyzed FBS, 0.569 µM | 110 | 93.4 | 104
RPMI 5 mM glucose + 10% dialyzed FBS, 1.71 µM | 94 | 69 | 108
RPMI 5 mM glucose + 10% dialyzed FBS, 5.12 µM | 45.5 | 21.6 | 84.5
RPMI 5 mM glucose + 10% dialyzed FBS, 15.4 µM | 5.98 | 7.81 | 21
RPMI 5 mM glucose + 10% dialyzed FBS, 46.1 µM | 6.01 | 3.41 | 4.29

AUC of viability dose-response curve
Conditions | [4] | [5] | [6]
HPLM + 10% dialyzed FBS | 361 | 350 | 368
RPMI 5 mM glucose + 10% FBS | 388 | 288 | 401
RPMI 5 mM glucose + 10% dialyzed FBS | 380 | 344 | 400

CC/1=C/C(=O)N(O)/C(=C1)C2CCCCC2
cell viability [%]
Conditions | [1] | [2] | [3]
HPLM + 10% dialyzed FBS, 0.000781 µM | 115 | 82.9 | 110
HPLM + 10% dialyzed FBS, 0.00234 µM | 118 | 89.7 | 117
HPLM + 10% dialyzed FBS, 0.00702 µM | 123 | 119 | 135
HPLM + 10% dialyzed FBS, 0.0211 µM | 132 | 111 | 146
HPLM + 10% dialyzed FBS, 0.0632 µM | 130 | 116 | 143
HPLM + 10% dialyzed FBS, 0.19 µM | 125 | 106 | 145
HPLM + 10% dialyzed FBS, 0.569 µM | 121 | 126 | 140
HPLM + 10% dialyzed FBS, 1.71 µM | 127 | 126 | 136
HPLM + 10% dialyzed FBS, 5.12 µM | 113 | 117 | 139
HPLM + 10% dialyzed FBS, 15.4 µM | 74.8 | 50.8 | 79
HPLM + 10% dialyzed FBS, 46.1 µM | 28.5 | 12.6 | 39.8
RPMI 5 mM glucose + 10% FBS, 0.000781 µM | – | 113 | –
RPMI 5 mM glucose + 10% FBS, 0.00234 µM | – | 111 | –
RPMI 5 mM glucose + 10% FBS, 0.00702 µM | – | 135 | –
RPMI 5 mM glucose + 10% FBS, 0.0211 µM | – | 124 | –
RPMI 5 mM glucose + 10% FBS, 0.0632 µM | – | 129 | –
RPMI 5 mM glucose + 10% FBS, 0.19 µM | – | 143 | –
RPMI 5 mM glucose + 10% FBS, 0.569 µM | – | 140 | –
RPMI 5 mM glucose + 10% FBS, 1.71 µM | – | 147 | –
RPMI 5 mM glucose + 10% FBS, 5.12 µM | – | 101 | –
RPMI 5 mM glucose + 10% FBS, 15.4 µM | – | 55.3 | –
RPMI 5 mM glucose + 10% FBS, 46.1 µM | – | 14.2 | –
RPMI 5 mM glucose + 10% dialyzed FBS, 0.000781 µM | – | 92.9 | –
RPMI 5 mM glucose + 10% dialyzed FBS, 0.00234 µM | – | 94.4 | –
RPMI 5 mM glucose + 10% dialyzed FBS, 0.00702 µM | – | 126 | –
RPMI 5 mM glucose + 10% dialyzed FBS, 0.0211 µM | – | 117 | –
RPMI 5 mM glucose + 10% dialyzed FBS, 0.0632 µM | – | 122 | –
RPMI 5 mM glucose + 10% dialyzed FBS, 0.19 µM | – | 147 | –
RPMI 5 mM glucose + 10% dialyzed FBS, 0.569 µM | – | 140 | –
RPMI 5 mM glucose + 10% dialyzed FBS, 1.71 µM | – | 144 | –
RPMI 5 mM glucose + 10% dialyzed FBS, 5.12 µM | – | 113 | –
RPMI 5 mM glucose + 10% dialyzed FBS, 15.4 µM | – | 56.4 | –
RPMI 5 mM glucose + 10% dialyzed FBS, 46.1 µM | – | 14.4 | –

AUC of viability dose-response curve
Conditions | [4] | [5] | [6]
HPLM + 10% dialyzed FBS | 435 | 430 | 441
RPMI 5 mM glucose + 10% FBS | 415 | 419 | 445
RPMI 5 mM glucose + 10% dialyzed FBS | 430 | 427 | 446

— the supplement of paper PMC11451515
